# Test results reported in patent US7196110B2, “N-substituted tricyclic 3-aminopyrazoles as inhibitors for the treatment of cell proliferative disorders” (Janssen Phamaceutica N.V., priority 2002, dated 2007).
# Columns and labels:
# [1] = tested on: human chronic myelogenous leukemia (CML) K562 cell line; assay: Flow cytometry cell cycle phase distribution in leukemia cells; assay type: cell-based; conditions: K562, 24 hours
# Procedure: The effect of compounds of the invention on cell proliferation in leukemia cells, in particular, the human chronic myelogenous leukemia (CML) K562 cell line, was tested using flow cytometry and trypan blue exclusion cell counting assays.
# The human chronic myelogenous leukemia (CML) K562 cell line was obtained from American Type Culture Collection (ATCC) and cultured under specified conditions, as provided by ATCC. A Becton Dickinson FACSCalibur instrument was used for flow cytometry analyses. A CycleTEST PLUS DNA Reagent Kit (Cat. No. 340242, Becton Dickinson) was used in the study for cell staining. The standard operating procedure and a protocol for CycleTEST PLUS DNA Reagent Kit from Becton Dickinson have been followed to carry out the study. Briefly, flow cytometric analysis of the differentially stained CML K562 cell line was used to estimate the DNA content and cell cycle phase distribution of cells treated with various concentrations of the compound for 24 hours. […] Data analysis was carried out using the ModFit LT cell cycle data analysis program (Verity Software House, Topsham, Me. 04086, www.vsh.com). Cell viability test was performed using a Trypan Blue exclusion assay (Trypan Blue from Sigma, Cat No. T 0776) following procedures known to those skilled in the art.
# [2] = tested on: MDAH2774 (ovarian cancer); assay: Clonogenicity assay, compound in combination with irradiation, MDAH2774; assay type: cell-based, human
# Procedure: (§1) Radiotherapy is a major therapeutic modality in treating many types of cancers including human prostate and ovarian cancers. The anti-proliferative activity of compounds within the scope of the invention was tested in combination with irradiation treatment.
# (§2) Cells DU145 (prostate cancer) and MDAH2774 (ovarian cancer) were obtained from ATCC; growth media MEM medium (Mediatech, Herndon, Va.) was supplemented with 8% FBS, 5 U/ml penicillin and 50 μg/ml Streptomycin (Hyclone, Logan, Utah), 2 mM L-glutamine (Hyclone, Logan, Utah), 25 mM HEPES (Hyclone, Logan, Utah); McCoy's 5A medium (Mediatech, Herndon, Va.) was supplemented with 8% FBS, 50 U/ml penicillin and 50 μg/ml-Strep (Hyclone, Logan, Utah) and Glutamine 2 mM L-glutamine (Hyclone, Logan, Utah), ^137CS γ-source was a Gammacell 1000 Elite irradiator (MDS Nordion, Kanata, Ontario, Canada); DMSO; 1× PBS; Methanol; 0.25% Crystal Violet, and 60 mm tissue culture dishes.
# (§3) DU145 or MDAH2774 cells at desired cell number were plated in early log phase on 60 mm dishes in MEM medium supplemented with 8% FBS, Penicillin, Streptomycin, L-glutamine, or McCoys medium supplemented with 8% FBS, Penicillin, Streptomycin and Glutamine, respectively. Cells were plated in triplicate. […] The final concentrations of the compound in the cell media ranged from 1 to 100 nM. After 24 h incubation with the test compound plates were split in two groups of equal size. The plates in the first group were irradiated with 7.3 Gy (plates containing DU145 cells) or 5.4 Gy (plates containing MDAH2774 cells) using a ^137Cs γ-source (dose rate 3.32 Gy/min). The second group of plates were treated identically but not irradiated. Cells were incubated for an additional 24 hours in medium containing test compound. Then, the cells were replenished with fresh compound-free identical medium and allowed to grow for an additional 11 days. Cells were then fixed with methanol, stained with 0.25% crystal violet, and the clones containing more than 50 cells were counted.
# (§4) The activity appeared to be concentration-dependent with more dramatic effects achieved at 100 nM compound with radiation in either cell line.
# [3] = tested on: Human tumor cell lines (LoVo, MDA-MB-231, H460 etc.); assay: Anti-tumor assay, human tumor nude mouse xenograft model; assay type: in vivo, athymic nude mice; conditions: 50 mg/kg
# Procedure: The anti-tumor activity of experimental compounds was evaluated in vivo using the human tumor nude mouse xenograft model. All procedures involving animals were conducted in an animal facility fully accredited by the American Association for Assessment and Accreditation of Laboratory Animal Care (AAALAC) and in accordance with The Guide for the Care and Use of Laboratory Animals (NIH). Protocols were approved by the RWJ-PRI Internal Animal Care and Use Committee (IACUC).
# Human tumor cell lines (LoVo, MDA-MB-231, H460 etc.) were obtained from American Type Culture Collection and cultured under specified conditions required for each cell type. Female athymic nude mice (Charles River nu/nu) were injected subcutaneously in the inguinal region of the thigh with 1–2×10^6 tumor cells in 0.1 mL volume on day zero. For growth delay studies, mice were dosed orally with vehicle (control group) or experimental drugs beginning three days after tumor cell inoculation. Compounds were prepared in 0.5% methylcellulose and treatments were administered bid for 30–35 consecutive days. Tumor growth was measured twice a week using calipers for the duration of the treatment. Tumor areas (mm^2) were calculated as a product of length×width. […] Differences between treated and control mice were analyzed statistically by ANOVA and Dunnett's t-test. […]
# DU145 (prostate cancer) = assay: Clonogenicity assay, compound in combination with irradiation, DU145; assay type: cell-based, human
# Procedure: as §1, §2, §3, §4
# [4] = Rat pharmacokinetics study of pro-drugs, conversion to parent monitored by HPLC/MS/MS; assay type: in vivo; conditions: po, rat plasma, 10 mg/kg orally, read-out: Fast PK (0.5 h) conc. Prodrug
# Procedure: Furthermore, pro-drugs have been administered orally to rats (10 mg/kg) in pharmacokinetics studies, and the conversion of pro-drugs to the parent compound was montitored by HPLC/MS/MS analyses. Parent compound or the glucuronide conjugates of the parent compound was detected in the rat plasma from the pharmacokinetics studies (Table G).
structure (smiles),measurement,setting,value
"COc1cc2c(cc1OC)-c1n[nH]c(Nc3cccc(F)c3)c1C2 [Compound 14, (3-Fluoro-phenyl)-(6,7-dimethoxy-2,4-dihydro-indeno[1,2-c]pyrazol-3-yl)-amine]",Percent of cells at G0–G1,[1]; compound conc. 1 nM,35%
same,Percent of cells at G2/M,[1]; compound conc. 1 nM,11%
same,Percent of cells at S phase,[1]; compound conc. 1 nM,53%
same,Percent of cells at G0–G1,[1]; compound conc. 10 nM,31%
same,Percent of cells at G2/M,[1]; compound conc. 10 nM,28%
same,Percent of cells at S phase,[1]; compound conc. 10 nM,41%
same,Percent of cells at G0–G1,[1]; compound conc. 100 nM,2%
same,Percent of cells at G2/M,[1]; compound conc. 100 nM,98%
same,Percent of cells at S phase,[1]; compound conc. 100 nM,0%
same,Percent of cells at G0–G1,[1]; compound conc. 1000 nM,3%
same,Percent of cells at G2/M,[1]; compound conc. 1000 nM,93%
same,Percent of cells at S phase,[1]; compound conc. 1000 nM,4%
same,Percent of cells at G0–G1,[1]; compound conc. 10000 nM,5%
same,Percent of cells at G2/M,[1]; compound conc. 10000 nM,90%
same,Percent of cells at S phase,[1]; compound conc. 10000 nM,5%
same,"colony formation inhibition with versus without radiation, MDAH2774","[2]; 5.4 Gy, compound 1 to 100 nM",the inhibitory effect was greater with radiation
same,"concentration from which marked inhibitory activity against colony formation was shown, MDAH2774",[2]; in the presence or absence of radiation (5.4 Gy),≥ 30 nM
same,No. of MDAH2774 Clones (average of three plates),"[2]; w/Radiation (5.4 Gy), 1000 cells initially plated, compound 1 nM",121
same,No. of MDAH2774 Clones (average of three plates),"[2]; w/Radiation (5.4 Gy), 1000 cells initially plated, compound 3 nM",125
same,No. of MDAH2774 Clones (average of three plates),"[2]; w/Radiation (5.4 Gy), 1000 cells initially plated, compound 10 nM",121
same,No. of MDAH2774 Clones (average of three plates),"[2]; w/Radiation (5.4 Gy), 1000 cells initially plated, compound 30 nM",8
same,No. of MDAH2774 Clones (average of three plates),"[2]; w/Radiation (5.4 Gy), 1000 cells initially plated, compound 100 nM",3
same,No. of MDAH2774 Clones (average of three plates),"[2]; w/o Radiation, 200 cells initially plated, compound 1 nM",98
same,No. of MDAH2774 Clones (average of three plates),"[2]; w/o Radiation, 200 cells initially plated, compound 3 nM",96
same,No. of MDAH2774 Clones (average of three plates),"[2]; w/o Radiation, 200 cells initially plated, compound 10 nM",110
same,No. of MDAH2774 Clones (average of three plates),"[2]; w/o Radiation, 200 cells initially plated, compound 30 nM",35
same,No. of MDAH2774 Clones (average of three plates),"[2]; w/o Radiation, 200 cells initially plated, compound 100 nM",8
same,tumor growth inhibition,[3],72%
same,"colony formation inhibition with versus without radiation, DU145","DU145 (prostate cancer); 7.3 Gy, compound 1 to 100 nM",the inhibitory effect was greater with radiation
same,No. of DU145 Clones (average of three plates),"DU145 (prostate cancer); W/o Radiation, 200 cells initially plated, compound 1 nM",118
same,No. of DU145 Clones (average of three plates),"DU145 (prostate cancer); W/o Radiation, 200 cells initially plated, compound 3 nM",108
same,No. of DU145 Clones (average of three plates),"DU145 (prostate cancer); W/o Radiation, 200 cells initially plated, compound 10 nM",111
same,No. of DU145 Clones (average of three plates),"DU145 (prostate cancer); W/o Radiation, 200 cells initially plated, compound 30 nM",100
same,No. of DU145 Clones (average of three plates),"DU145 (prostate cancer); W/o Radiation, 200 cells initially plated, compound 100 nM",22
same,"concentration from which marked inhibitory activity against colony formation was shown, DU145",DU145 (prostate cancer); in the presence or absence of radiation (7.3 Gy),≥ 30 nM
same,No. of DU145 Clones (average of three plates),"DU145 (prostate cancer); w/Radiation (7.3 Gy), 1200 cells initially plated, compound 1 nM",117
same,No. of DU145 Clones (average of three plates),"DU145 (prostate cancer); w/Radiation (7.3 Gy), 1200 cells initially plated, compound 3 nM",100
same,No. of DU145 Clones (average of three plates),"DU145 (prostate cancer); w/Radiation (7.3 Gy), 1200 cells initially plated, compound 10 nM",126
same,No. of DU145 Clones (average of three plates),"DU145 (prostate cancer); w/Radiation (7.3 Gy), 1200 cells initially plated, compound 30 nM",57
same,No. of DU145 Clones (average of three plates),"DU145 (prostate cancer); w/Radiation (7.3 Gy), 1200 cells initially plated, compound 100 nM",5
"COc1cc2c(cc1OC)-c1c(c(Nc3cccc(F)c3)nn1C(=O)CO)C2 [Compound 432, 1-[3-(3-Fluoro-phenylamino)-6,7-dimethoxy-4H-indeno[1,2-c]pyrazol-1-yl]-2-hydroxy-ethanone]",concentration at 0.5 h,[4],80 nM
